Here are results for one compound from US20160326098A1, “Pharmaceutically Active Compound for Use as Anti-inflammatory Agent” (Pax Forschung GmbH, priority 2013, published 2016).

Structures are written as SMILES.

A short description of data set [1]: Haematocrit in blood, rats with TNBS-induced colitis. Format: in vivo. Conditions: 1.11 mmol/kg, vs groups L and M, FIG. 28. The method, then:
(§1) Colonic inflammation was induced by intracolonic administration of TNBS (2,4,6-trinitrobenzenesulfonic acid) (40 mg/kg in 0.25 ml of 25% aqueous ethanol) through an 8-cm-long soft plastic catheter under transient diethylether anesthesia. In the sham-operated groups, only the vehicle for TNBS was administered. The animals were deprived of food, but not water, for 12 h before the enemas.
The above-described clinical studies were repeated with animals having colitis which was induced as described above. […] Two days after the enema the effects of the treatment were determined by measurement of body weight, blood gas analysis and biopsy. […] Surgery was performed to allow registration of the hemodynamic parameters at 1 h intervals for 6 h (cardiac output [CO] data were measured only at the end of the experiments). […] In addition, fluorescence confocal endomicroscopy was performed to examine the microvasculature and morphologic changes of the mucosa of the distal colon, and full-thickness tissue samples and venous blood samples were taken to determine the biochemical changes in the colon and plasma.

The test system of a further data set is myeloperoxidase (MPO). The experiment in a line: Tissue myeloperoxidase activity, rats with TNBS-induced colitis. The class given is in vivo. Conditions: gastric and colon tissue, one day after 1.11 mmol/kg, vs untreated colitis and ASS groups, FIGS. 32a/32b. The method, then: as §1
Colon biopsies kept on ice were homogenized in phosphate buffer (pH 7.4) containing 50 mM Tris-HCl (Reanal, Budapest, Hungary), 0.1 mM EDTA, 0.5 mM dithiothreitol, 1 mM phenylmethylsulfonyl fluoride, 10 μg/ml soybean trypsin inhibitor, and 10 μg/ml leupeptin (Sigma Aldrich GmbH, Munich, Germany). […] The activity of myeloperoxidase (MPO) was measured on the pellet of the homogenate.
The activity of MPO as a marker of tissue leukocyte infiltration was measured on the pellet of the homogenate. […] The reaction led to the hydrogen peroxide-dependent oxidation of tetramethylbenzidine, which could be detected spectrophotometrically at 450 nm (UV-1601 spetrophotometer; Shimadzu, Kyoto, Japan). Myeloperoxidase activities were measured at 37° C.; the reaction was stopped after 5 minutes by the addition of 0.2 ml of H2SO4 (2 M), and the resulting data were referred to the protein content. […]

On to `CC(=O)Oc1ccccc1C(=O)NC(CO)(CO)CO` [compound according to the invention], for which the “haematocrit level in the blood” value in data set [1] is listed as “slightly higher”. The myeloperoxidase enzyme activity entry with myeloperoxidase (MPO) is “decrease of activity”.
